Assay results as given in ChEMBL document CHEMBL3991601, “The target landscape of clinical kinase drugs” (Science, 2017).
The source made the active and inactive calls.

What was measured:
[1] = target: Cyclin-dependent kinase 5 (Homo sapiens, UniProt Q00535)
[2] = target: T1, Delta(24)-sterol reductase (Homo sapiens, UniProt Q15392)
T1 sequence (Q15392 whole entry): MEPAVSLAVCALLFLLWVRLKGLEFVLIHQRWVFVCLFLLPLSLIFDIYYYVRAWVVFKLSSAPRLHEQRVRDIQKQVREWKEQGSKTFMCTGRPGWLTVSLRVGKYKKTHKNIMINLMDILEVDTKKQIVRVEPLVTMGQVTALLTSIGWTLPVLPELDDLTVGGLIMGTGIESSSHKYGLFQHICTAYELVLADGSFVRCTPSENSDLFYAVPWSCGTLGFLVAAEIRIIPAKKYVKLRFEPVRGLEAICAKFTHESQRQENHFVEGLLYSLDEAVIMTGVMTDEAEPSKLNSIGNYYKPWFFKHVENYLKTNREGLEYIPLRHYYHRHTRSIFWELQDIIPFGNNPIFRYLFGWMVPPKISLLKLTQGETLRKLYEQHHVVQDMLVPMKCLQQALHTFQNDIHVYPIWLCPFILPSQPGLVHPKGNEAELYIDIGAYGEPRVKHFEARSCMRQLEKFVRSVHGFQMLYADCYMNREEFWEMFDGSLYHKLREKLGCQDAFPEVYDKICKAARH

[3] = target: T2, Phenylalanine--tRNA ligase beta subunit (Homo sapiens, UniProt Q9NSD9)
T2 sequence (Q9NSD9 whole entry): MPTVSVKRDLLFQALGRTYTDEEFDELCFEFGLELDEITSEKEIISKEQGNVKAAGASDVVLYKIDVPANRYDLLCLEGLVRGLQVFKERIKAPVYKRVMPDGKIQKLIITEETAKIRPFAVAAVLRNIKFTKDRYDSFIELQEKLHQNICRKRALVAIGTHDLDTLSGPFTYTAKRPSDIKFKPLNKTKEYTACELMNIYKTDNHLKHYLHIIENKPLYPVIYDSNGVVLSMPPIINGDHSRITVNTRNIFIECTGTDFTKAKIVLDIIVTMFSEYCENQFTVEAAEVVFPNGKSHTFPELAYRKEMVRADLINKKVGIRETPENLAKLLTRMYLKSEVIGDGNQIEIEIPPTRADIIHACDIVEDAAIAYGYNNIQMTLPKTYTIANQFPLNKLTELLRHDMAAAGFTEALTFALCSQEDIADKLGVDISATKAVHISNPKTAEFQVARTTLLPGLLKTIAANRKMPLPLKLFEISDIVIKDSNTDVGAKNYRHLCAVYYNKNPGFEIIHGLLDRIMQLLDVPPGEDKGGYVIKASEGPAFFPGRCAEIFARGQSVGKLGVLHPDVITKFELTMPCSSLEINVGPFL

[4] = target: Structural maintenance of chromosomes protein 2 (Homo sapiens, UniProt O95347)
[5] = target: T3, MAP/microtubule affinity-regulating kinase 4 (Homo sapiens, UniProt Q96L34)
T3 sequence (Q96L34 whole entry): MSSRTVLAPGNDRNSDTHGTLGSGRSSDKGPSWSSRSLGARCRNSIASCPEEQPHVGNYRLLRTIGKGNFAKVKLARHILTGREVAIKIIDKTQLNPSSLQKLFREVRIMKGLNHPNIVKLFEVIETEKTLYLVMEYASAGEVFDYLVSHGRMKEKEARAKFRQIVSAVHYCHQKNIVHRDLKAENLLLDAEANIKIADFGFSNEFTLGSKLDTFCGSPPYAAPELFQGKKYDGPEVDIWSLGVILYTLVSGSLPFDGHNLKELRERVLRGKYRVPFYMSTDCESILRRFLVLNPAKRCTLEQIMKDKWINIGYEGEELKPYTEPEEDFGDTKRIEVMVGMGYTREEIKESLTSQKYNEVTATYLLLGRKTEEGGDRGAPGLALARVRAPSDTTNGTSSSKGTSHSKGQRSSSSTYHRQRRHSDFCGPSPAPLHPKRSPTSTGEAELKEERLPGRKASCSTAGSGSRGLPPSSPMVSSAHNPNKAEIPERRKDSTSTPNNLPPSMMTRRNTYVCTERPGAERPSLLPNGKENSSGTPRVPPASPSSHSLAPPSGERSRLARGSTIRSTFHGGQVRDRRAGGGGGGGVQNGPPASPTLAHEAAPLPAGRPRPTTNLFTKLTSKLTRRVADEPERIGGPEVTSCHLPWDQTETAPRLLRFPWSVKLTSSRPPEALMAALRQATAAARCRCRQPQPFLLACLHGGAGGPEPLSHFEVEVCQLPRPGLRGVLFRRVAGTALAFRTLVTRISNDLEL

[6] = target: Serine/threonine-protein kinase pim-1 (Homo sapiens, UniProt P11309)
Further: in the data inactive means no Kd found up to 30 µM.

Serine/threonine-protein kinase pim-1, sequence (P11309 whole entry): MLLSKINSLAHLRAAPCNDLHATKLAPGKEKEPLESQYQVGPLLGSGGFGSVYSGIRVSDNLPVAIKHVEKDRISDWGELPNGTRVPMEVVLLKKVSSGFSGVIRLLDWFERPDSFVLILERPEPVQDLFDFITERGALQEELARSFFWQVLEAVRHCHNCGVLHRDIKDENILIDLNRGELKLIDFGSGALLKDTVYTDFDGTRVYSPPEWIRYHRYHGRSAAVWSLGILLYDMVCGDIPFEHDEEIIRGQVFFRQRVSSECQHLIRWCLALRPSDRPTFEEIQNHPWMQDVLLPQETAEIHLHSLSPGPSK
Cyclin-dependent kinase 5, sequence (Q00535 whole entry): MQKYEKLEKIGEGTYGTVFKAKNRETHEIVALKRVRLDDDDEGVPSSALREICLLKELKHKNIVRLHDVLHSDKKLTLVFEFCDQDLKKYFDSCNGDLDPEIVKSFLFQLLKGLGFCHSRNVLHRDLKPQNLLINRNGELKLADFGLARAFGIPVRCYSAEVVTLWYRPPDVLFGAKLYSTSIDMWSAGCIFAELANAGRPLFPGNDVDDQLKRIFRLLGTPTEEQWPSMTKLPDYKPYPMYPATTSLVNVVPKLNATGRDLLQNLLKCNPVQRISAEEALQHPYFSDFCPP
Structural maintenance of chromosomes protein 2, sequence (O95347 whole entry): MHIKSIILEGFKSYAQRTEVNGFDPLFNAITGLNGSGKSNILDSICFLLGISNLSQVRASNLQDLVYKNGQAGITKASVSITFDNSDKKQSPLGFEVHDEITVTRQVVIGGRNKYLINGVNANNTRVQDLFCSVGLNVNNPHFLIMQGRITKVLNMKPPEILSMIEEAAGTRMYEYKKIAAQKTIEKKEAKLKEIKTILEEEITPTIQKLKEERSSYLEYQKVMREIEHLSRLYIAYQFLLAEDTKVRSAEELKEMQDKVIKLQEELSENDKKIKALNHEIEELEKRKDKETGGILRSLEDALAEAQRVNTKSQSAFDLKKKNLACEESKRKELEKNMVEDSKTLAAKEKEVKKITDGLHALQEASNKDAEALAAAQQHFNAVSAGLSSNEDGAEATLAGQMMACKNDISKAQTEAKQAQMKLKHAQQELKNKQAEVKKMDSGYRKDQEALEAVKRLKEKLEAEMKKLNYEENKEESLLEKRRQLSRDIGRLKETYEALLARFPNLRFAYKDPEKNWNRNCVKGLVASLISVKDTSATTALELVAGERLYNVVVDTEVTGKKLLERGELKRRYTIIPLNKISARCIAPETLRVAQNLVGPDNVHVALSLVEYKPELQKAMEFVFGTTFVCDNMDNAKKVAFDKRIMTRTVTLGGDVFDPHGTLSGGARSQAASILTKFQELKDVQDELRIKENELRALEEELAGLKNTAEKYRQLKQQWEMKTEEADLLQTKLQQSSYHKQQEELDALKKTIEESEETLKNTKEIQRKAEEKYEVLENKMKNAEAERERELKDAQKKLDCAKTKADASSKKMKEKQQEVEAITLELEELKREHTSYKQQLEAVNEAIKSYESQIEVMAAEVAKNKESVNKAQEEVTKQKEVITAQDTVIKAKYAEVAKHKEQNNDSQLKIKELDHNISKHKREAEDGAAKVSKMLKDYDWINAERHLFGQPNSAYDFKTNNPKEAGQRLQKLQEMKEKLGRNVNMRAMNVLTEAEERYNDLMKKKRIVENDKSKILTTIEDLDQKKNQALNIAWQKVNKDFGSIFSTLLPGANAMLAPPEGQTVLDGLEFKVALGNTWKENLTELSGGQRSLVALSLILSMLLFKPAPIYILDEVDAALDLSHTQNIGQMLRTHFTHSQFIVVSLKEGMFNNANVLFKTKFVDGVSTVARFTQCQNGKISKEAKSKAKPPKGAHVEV

SMILES | Kd [1] | Kd [2] | Kd [3] | Kd [4] | Kd [5] | Kd [6]
N[C@@H]1CCCN(c2c(/C=C3\SC(=O)NC3=O)cccc2-c2ccccc2)C1 | > 30 µM (inactive) | > 30 µM (inactive) | > 30 µM (inactive) | > 30 µM (inactive) | – | –
Cc1ccc(S(=O)(=O)Nc2nc3ccccc3nc2Nc2ccc3nsnc3c2)cc1 | > 30 µM (inactive) | > 30 µM (inactive) | > 30 µM (inactive) | > 30 µM (inactive) | > 30 µM (inactive) | > 30 µM (inactive)
CN1CC[C@@H](c2c(O)cc(O)c3c(=O)cc(-c4ccccc4Cl)oc23)[C@@H]1CO | > 30 µM (inactive) | > 30 µM (inactive) | > 30 µM (inactive) | > 30 µM (inactive) | > 30 µM (inactive) | > 30 µM (inactive)
Cc1cc(-c2cc(O)ccc2Cl)cc2nnc(Nc3ccc(OCCN4CCCC4)cc3)nc12 | > 30 µM (inactive) | > 30 µM (inactive) | > 30 µM (inactive) | > 30 µM (inactive) | > 30 µM (inactive) | > 30 µM (inactive)
Cn1ncc(Cl)c1-c1cc(C(=O)N[C@H](CN)Cc2cccc(F)c2)sc1Cl [AFURESERTIB] | > 30 µM (inactive) | > 30 µM (inactive) | > 30 µM (inactive) | > 30 µM (inactive) | > 30 µM (inactive) | > 30 µM (inactive)
CNS(=O)(=O)Nc1nccc(Cc2c(C)c3ccc(Oc4ncccn4)cc3oc2=O)c1F [AVUTOMETINIB] | > 30 µM (inactive) | > 30 µM (inactive) | > 30 µM (inactive) | > 30 µM (inactive) | > 30 µM (inactive) | > 30 µM (inactive)
Cc1ccc(NC(=O)c2ccc(CN3CC[C@H](N(C)C)C3)c(C(F)(F)F)c2)cc1Nc1nccc(-c2cncnc2)n1 [BAFETINIB] | > 30 µM (inactive) | > 30 µM (inactive) | > 30 µM (inactive) | > 30 µM (inactive) | > 30 µM (inactive) | > 30 µM (inactive)
CCS(=O)(=O)N1CC(CC#N)(n2cc(-c3ncnc4[nH]ccc34)cn2)C1 [BARICITINIB] | > 30 µM (inactive) | > 30 µM (inactive) | > 30 µM (inactive) | > 30 µM (inactive) | – | > 30 µM (inactive)
CCc1cnn2c(NCc3ccc[n+]([O-])c3)cc(N3CCCC[C@H]3CCO)nc12 [DINACICLIB] | – | > 30 µM (inactive) | > 30 µM (inactive) | > 30 µM (inactive) | > 30 µM (inactive) | –
CN1CCN(c2ccc3nc(-c4c(N)c5c(F)cccc5[nH]c4=O)[nH]c3c2)CC1 [DOVITINIB] | – | > 30 µM (inactive) | > 30 µM (inactive) | > 30 µM (inactive) | – | –
Cc1cn(-c2cc(NC(=O)c3ccc(C)c(Nc4nccc(-c5cccnc5)n4)c3)cc(C(F)(F)F)c2)cn1 [NILOTINIB] | – | > 30 µM (inactive) | > 30 µM (inactive) | > 30 µM (inactive) | – | –
OCCn1cc(-c2cnc3nnn(Cc4ccc5ncccc5c4)c3n2)cn1 [PF-04217903] | – | > 30 µM (inactive) | > 30 µM (inactive) | > 30 µM (inactive) | > 30 µM (inactive) | –
C[C@@H](c1ccc2nccn2c1)n1nnc2ncc(-c3cnn(C)c3)nc21 [SAVOLITINIB] | > 30 µM (inactive) | > 30 µM (inactive) | > 30 µM (inactive) | > 30 µM (inactive) | – | > 30 µM (inactive)
O=C(Nc1cccc(Cl)c1)Nc1ncc(CCNc2ncnc3ccsc23)s1 [SNS-314] | – | > 30 µM (inactive) | > 30 µM (inactive) | > 30 µM (inactive) | > 30 µM (inactive) | –
C[C@@H]1CN(Cc2ccc(F)cc2)[C@@H](C)CN1C(=O)c1cc2c(C(=O)C(=O)N(C)C)cn(C)c2cc1Cl [TALMAPIMOD] | > 30 µM (inactive) | – | > 30 µM (inactive) | > 30 µM (inactive) | > 30 µM (inactive) | > 30 µM (inactive)
Nc1nc(N)c2nc(-c3cccc(O)c3)c(-c3cccc(O)c3)nc2n1 [TG100-115] | – | > 30 µM (inactive) | > 30 µM (inactive) | > 30 µM (inactive) | – | –
CN1N=C(N)c2cn([C@@H]3O[C@H](COP(=O)(O)O)[C@@H](O)[C@H]3O)c3ncnc1c23 [TRICIRIBINE PHOSPHATE] | > 30 µM (inactive) | > 30 µM (inactive) | > 30 µM (inactive) | > 30 µM (inactive) | > 30 µM (inactive) | –
CC(C)Nc1cc(-c2c[nH]c(C(=O)N[C@H](CO)c3cccc(Cl)c3)c2)c(Cl)cn1 [ULIXERTINIB] | > 30 µM (inactive) | > 30 µM (inactive) | > 30 µM (inactive) | > 30 µM (inactive) | – | > 30 µM (inactive)

Next, values leading:

Kd [1] | Kd [2] | Kd [3] | Kd [4] | Kd [5] | Kd [6] | SMILES
> 30 µM (inactive) | > 30 µM (inactive) | > 30 µM (inactive) | > 30 µM (inactive) | > 30 µM (inactive) | > 30 µM (inactive) | CCN1CCN(Cc2ccc(-c3cc4c(N[C@H](C)c5ccccc5)ncnc4[nH]3)cc2)CC1 [AEE-788]
> 30 µM (inactive) | > 30 µM (inactive) | > 30 µM (inactive) | > 30 µM (inactive) | > 30 µM (inactive) | > 30 µM (inactive) | COc1cc(N2CCC(N3CCN(C)CC3)CC2)ccc1Nc1ncnc(Nc2ccccc2S(=O)(=O)C(C)C)n1 [ASP-3026]
> 30 µM (inactive) | > 30 µM (inactive) | > 30 µM (inactive) | > 30 µM (inactive) | > 30 µM (inactive) | > 30 µM (inactive) | COc1cc(CCc2cc(NC(=O)c3ccc(N4C[C@@H](C)N[C@@H](C)C4)cc3)n[nH]2)cc(OC)c1 [AZD-4547]
> 30 µM (inactive) | > 30 µM (inactive) | > 30 µM (inactive) | > 30 µM (inactive) | > 30 µM (inactive) | > 30 µM (inactive) | Cc1cc([C@@H](C)Nc2ccccc2C(=O)O)c2nc(N3CCOCC3)cc(=O)n2c1 [AZD-6482]
> 30 µM (inactive) | > 30 µM (inactive) | > 30 µM (inactive) | > 30 µM (inactive) | > 30 µM (inactive) | > 30 µM (inactive) | COc1ccc(-c2ccc3c(N4CCOC[C@@H]4C)nc(N4CCOC[C@@H]4C)nc3n2)cc1CO [AZD-8055]
> 30 µM (inactive) | > 30 µM (inactive) | > 30 µM (inactive) | > 30 µM (inactive) | > 30 µM (inactive) | > 30 µM (inactive) | C[C@@H](Nc1cc(F)cc(F)c1)c1cc(C(=O)N(C)C)cc2c(=O)cc(N3CCOCC3)oc12 [AZD-8186]
– | > 30 µM (inactive) | > 30 µM (inactive) | > 30 µM (inactive) | > 30 µM (inactive) | – | Cc1nc(N)sc1-c1ccnc(Nc2ccc(N3CCOCC3)cc2)n1 [CYC-116]
– | > 30 µM (inactive) | > 30 µM (inactive) | > 30 µM (inactive) | > 30 µM (inactive) | – | Cc1cc(Nc2cc(N3CCN(C)CC3)nc(/C=C/c3ccccc3)n2)n[nH]1 [ENMD-2076]
– | > 30 µM (inactive) | > 30 µM (inactive) | 1.11 µM (active) | – | – | CCn1c(-c2nonc2N)nc2c(C#CC(C)(C)O)ncc(OC[C@H]3CCCNC3)c21 [GSK-690693]
> 30 µM (inactive) | > 30 µM (inactive) | > 30 µM (inactive) | > 30 µM (inactive) | > 30 µM (inactive) | – | CN1CCC(CNc2ccc3ncc(-c4cccc(OC(F)(F)F)c4)n3n2)CC1 [SGI-1776]
